Reference: the supplement of paper PMC3937590

Assays:
Assay in all cases: -log10 GI50 (growth inhibition 50%) (-log10(M)); higher = more potent growth inhibition
HCC1143 = system: HCC1143
Summary of the method: (§1)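 Breast cancer cell lines were exposed to each compound for 72 hours at nine doses in 1:5 serial dilution, in triplicate, with a luminescence read-out against a time-zero plate. A Gompertz curve was fitted to the dose-response data by nonlinear least squares. The value is minus log10 of GI50, the molar concentration giving the set level of growth inhibition. Values equal to the top dose carry a < qualifier.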

CAMA1 = system: CAMA1
Summary of the method: as §1

184B5 = system: 184B5
Summary of the method: as §1

SUM1315MO2 = system: SUM1315MO2
Summary of the method: as §1

AU565 = system: AU565
Summary of the method: as §1

MDAMB157 = system: MDAMB157
Summary of the method: as §1

MDAMB134VI = system: MDAMB134VI
Summary of the method: as §1

HCC2185 = system: HCC2185
Summary of the method: as §1

HCC1419 = system: HCC1419
Summary of the method: as §1

600MPE = system: 600MPE
Summary of the method: as §1

HCC1569 = system: HCC1569
Summary of the method: as §1

HCC1395 = system: HCC1395
Summary of the method: as §1

MCF10A = system: MCF10A
Summary of the method: as §1

BT549 = system: BT549
Summary of the method: as §1

HCC3153 = system: HCC3153
Summary of the method: as §1

MCF7 = system: MCF7
Summary of the method: as §1

HCC1806 = system: HCC1806
Summary of the method: as §1

ZR751 = system: ZR751
Summary of the method: as §1

MX1 = system: MX1
Summary of the method: as §1

SUM225CWN = system: SUM225CWN
Summary of the method: as §1

Row | Structure (SMILES) | -log10 GI50 (HCC1143) | -log10 GI50 (MDAMB157) | -log10 GI50 (MDAMB134VI) | -log10 GI50 (HCC2185) | -log10 GI50 (HCC1419) | -log10 GI50 (HCC1569) | -log10 GI50 (HCC1395) | -log10 GI50 (BT549) | -log10 GI50 (HCC3153) | -log10 GI50 (MCF7) | -log10 GI50 (HCC1806) | -log10 GI50 (CAMA1) | -log10 GI50 (184B5) | -log10 GI50 (SUM1315MO2) | -log10 GI50 (AU565) | -log10 GI50 (600MPE) | -log10 GI50 (MCF10A) | -log10 GI50 (ZR751) | -log10 GI50 (MX1) | -log10 GI50 (SUM225CWN)
1 | C[C@]12O[C@H](C[C@]1(O)CO)n1c3ccccc3c3c4c(c5c6ccccc6n2c5c31)CNC4=O [Lestaurtinib] | 6.48 | 6.46 | 6.33 | 5.52 | 5.94 | 6.19 | 6.91 | 6.19 | 5.06 | 5.84 | 6.79 | 5.42 | 6.49 | 7.45 | 6.07 | 5.77 | 6.26 | 5.75 | 7.17 | 6.03
2 | COc1cccc(-c2cc(=O)c3ccccc3o2)c1N | < 4 | < 4.3 | < 4 | 5.06 | < 4 | < 4.3 | < 4 | 4.36 | 4.1 | < 4.3 | < 4.3 | 4.32 | < 4.3 | < 4.3 | 5.12 | < 4.3 | < 4.3 | < 4.3 | 4.39 | 4.64
3 | COc1ncc(-c2ccc3nccc(-c4ccnnc4)c3c2)cc1NS(=O)(=O)c1ccc(F)cc1F | 7.43 | 6.51 | 7.97 | 8.04 | 9.48 | 7.75 | 7.31 | 7.32 | 7.38 | 8.14 | 7.54 | 7.08 | 8.23 | 8.02 | 8.1 | 8.22 | 8.1 | 8.09 | 8.39 | 8.79
4 | Cc1cc(C(=O)N2CCN(c3cccc(Cl)c3)CC2)n(-c2ccccc2)n1 [XRP44X] | 5.69 | 5.95 | 6.09 | 6.31 | < 3.88 | 4.6 | 6.03 | 5.83 | 5.74 | 6.4 | 5.97 | 6.01 | 6.55 | 6.14 | 6.35 | < 3.88 | 6.55 | 5.91 | 6.04 | 5.5
5 | CS(=O)(=O)CCNCc1ccc(-c2ccc3ncnc(Nc4ccc(OCc5cccc(F)c5)c(Cl)c4)c3c2)o1 [Lapatinib] | < 4.78 | < 4.78 | < 4.78 | < 4.78 | 6.61 | 5.47 | < 4.78 | < 4.78 | < 4.78 | < 4.78 | < 4.78 | < 4.78 | 5.24 | 4.82 | 6.4 | < 4.78 | < 4.78 | < 4.78 | 5.27 | 6.16
6 | O=C1c2ccccc2-[n+]2ccc3c([nH]c4ccccc43)c21 [Fascaplysin] | 6.56 | 6.77 | 6.65 | 6.9 | 6.58 | 6.33 | 6.49 | 6.28 | 6.55 | 6.72 | 6.59 | 6.61 | 6.53 | 6.38 | 6.95 | 6.55 | 6.43 | 6.45 | 6.53 | 7.25
7 | O=S(=O)(CC1CS1)c1ccc(Oc2ccccc2)cc1 (stereo not given) [SB-3CT] | < 4 | < 3.78 | < 4 | 4.33 | < 3.78 | < 3.78 | 4.03 | 5.17 | < 4 | < 4 | < 4 | < 4 | < 3.78 | 4.02 | < 4 | < 4 | 4.05 | < 3.78 | 4.85 | < 4
8 | CCN(CC)CCNC(=O)c1c(C)[nH]c(/C=C2\C(=O)Nc3ccc(F)cc32)c1C [Sunitinib malate] | 5.16 | 5.21 | 4.97 | 4.7 | 4.72 | 5.14 | 5.35 | 5.29 | 4.96 | 5.23 | 5.3 | 5.07 | 5.28 | 5.12 | 5.42 | 5.4 | 5.27 | 4.88 | 5.27 | 5.21

The next lines start with results.

Row | -log10 GI50 (HCC1143) | -log10 GI50 (MDAMB157) | -log10 GI50 (MDAMB134VI) | -log10 GI50 (HCC2185) | -log10 GI50 (HCC1419) | -log10 GI50 (HCC1569) | -log10 GI50 (HCC1395) | -log10 GI50 (BT549) | -log10 GI50 (HCC3153) | -log10 GI50 (MCF7) | -log10 GI50 (HCC1806) | Structure (SMILES) | -log10 GI50 (CAMA1) | -log10 GI50 (184B5) | -log10 GI50 (SUM1315MO2) | -log10 GI50 (AU565) | -log10 GI50 (600MPE) | -log10 GI50 (MCF10A) | -log10 GI50 (ZR751) | -log10 GI50 (MX1) | -log10 GI50 (SUM225CWN)
9 | 4.67 | 4.76 | 4.47 | 4.81 | < 4.18 | 4.43 | 4.65 | 4.37 | 4.56 | 5.25 | 4.32 | COc1ccc(C2=N[C@@H](c3ccc(Cl)cc3)[C@@H](c3ccc(Cl)cc3)N2C(=O)N2CCNC(=O)C2)c(OC(C)C)c1 [Nutlin 3a] | 4.34 | 5.3 | 4.75 | 4.79 | 4.81 | 5.21 | 5.51 | 4.65 | 4.69
10 | 6.8 | 6.76 | 6.63 | 6.66 | 6.8 | 6.68 | 6.64 | 7.04 | 6.84 | 6.47 | 6.5 | CC(C)C[C@@H](C=O)NC(=O)[C@H](CC(C)C)NC(=O)[C@H](CC(C)C)NC(=O)OCc1ccccc1 [MG-132] | 6.69 | 7.79 | 6.92 | 7.05 | 6.3 | 7.21 | 6.26 | 6.88 | 7.01
11 | < 3.88 | < 3.88 | < 3.88 | 4.33 | 4.31 | 4.33 | < 3.88 | < 3.88 | < 3.88 | < 3.88 | < 3.88 | N#Cc1c(-c2ccccc2)cc(-c2cc(Br)ccc2O)[nH]c1=O [TCS PIM-11] | < 3.88 | 5.61 | 4.75 | < 4.18 | < 3.88 | 4.57 | 4 | 4.73 | 4.53
